# Test results: ChEMBL document CHEMBL5038655, “Development of Novel Dihydrofuro[3,4-d]pyrimidine Derivatives as HIV-1 NNRTIs to Overcome the Highly Resistant Mutant Strains F227L/V106A and K103N/Y181C” (J Med Chem, 2022)
# Assays:
# [1] = biological target: Human immunodeficiency virus type 1 reverse transcriptase (Human immunodeficiency virus 1, UniProt Q72547); assay: Inhibition of wild type HIV-1 reverse transcriptase using biotin-labelled dNTPs as substrate incubated for 2 hrs by ELISA
# [2] = tested on: Human immunodeficiency virus 1; assay: Antiviral activity against HIV-1 IIIB infected in human MT4 cells assessed as protection against virus-induced cytotoxicity incubated for 5 days by MTT assay; type: functional, organism-based; conditions: Human immunodeficiency virus 1, IIIB, MT4, 120 h
# [3] = tested on: Human immunodeficiency virus 1; assay: Antiviral activity against HIV-1 IIIB harboring K103N/Y181C double mutant infected in human MT4 cells assessed as protection against virus-induced cytotoxicity incubated for 5 days by MTT assay; type: functional, organism-based; conditions: Human immunodeficiency virus 1, IIIB, MT4, 120 h
# [4] = Cytotoxicity against human MT4 cells assessed as reduction in cell viability incubated for 5 days by MTT assay; type: toxicity, cell-based; conditions: time 5 day
# [5] = Selectivity index, ratio of CC50 for human MT4 cells to EC50 for antiviral activity against HIV-1 IIIB infected in human MT4 cells; type: toxicity, cell-based; conditions: MT4 cells (uninfected and infected with HIV-1 IIIB), read-out: Ratio CC50/EC50
# [6] = Selectivity index, ratio of CC50 for human MT4 cells to EC50 for antiviral activity against HIV-1 IIIB harboring K103N/Y181C double mutant infected in human MT4 cells; type: toxicity, cell-based; conditions: read-out: Ratio CC50/EC50
# [7] = Terminal half life in Sprague-Dawley rat at 10 mg/kg, po measured upto 12 hrs by LC-MS/MS analysis; type: ADME, organism-based; conditions: in vivo, read-out: beta t1/2 (converted)
# [8] = tested on: Human immunodeficiency virus 1; assay: Antiviral activity against HIV1 L1001 infected in human MT4 cells assessed as protection against virus-induced cytopathic effect incubated for 5 days by MTT assay; type: functional, organism-based; conditions: Human immunodeficiency virus 1, L1001, MT4, 120 h
# [9] = tested on: Human immunodeficiency virus 1; assay: Antiviral activity against HIV-1 harboring reverse transcriptase K103N mutant infected in human MT4 cells assessed as protection against virus-induced cytopathic effect incubated for 5 days by MTT assay; conditions: Human immunodeficiency virus 1, MT4, 120 h
# [10] = tested on: Human immunodeficiency virus 1; assay: Antiviral activity against HIV-1 harboring reverse transcriptase Y181C mutant infected in human MT4 cells assessed as protection against virus-induced cytopathic effect incubated for 5 days by MTT assay; conditions: Human immunodeficiency virus 1, MT4, 120 h
# [11] = tested on: Human immunodeficiency virus 1; assay: Antiviral activity against HIV-1 harboring reverse transcriptase Y188L mutant infected in human MT4 cells assessed as protection against virus-induced cytopathic effect incubated for 5 days by MTT assay; conditions: Human immunodeficiency virus 1, MT4, 120 h
# [12] = tested on: Human immunodeficiency virus 1; assay: Antiviral activity against HIV-1 harboring reverse transcriptase E138K mutant infected in human MT4 cells assessed as protection against virus-induced cytopathic effect incubated for 5 days by MTT assay; conditions: Human immunodeficiency virus 1, MT4, 120 h
# [13] = tested on: Human immunodeficiency virus 1; assay: Antiviral activity against HIV-1 harboring reverse transcriptase F227L/V106A mutant infected in human MT4 cells assessed as protection against virus-induced cytopathic effect incubated for 5 days by MTT assay; conditions: Human immunodeficiency virus 1, MT4, 120 h
# [14] = Terminal half life in Sprague-Dawley rat at 2 mg/kg, iv measured upto 10 hrs by LC-MS/MS analysis; type: ADME, organism-based; conditions: in vivo, read-out: beta t1/2 (converted)
# [15] = Tmax in Sprague-Dawley rat at 2 mg/kg, iv measured upto 10 hrs by LC-MS/MS analysis; type: ADME, organism-based; conditions: in vivo
# [16] = Tmax in Sprague-Dawley rat at 10 mg/kg, po measured upto 12 hrs by LC-MS/MS analysis; type: ADME, organism-based; conditions: in vivo
# [17] = Cmax in Sprague-Dawley rat at 2 mg/kg, iv measured upto 10 hrs by LC-MS/MS analysis; type: ADME, organism-based; parameters: route intravenous, dose 2 mg/kg, time <=10; conditions: in vivo
# [18] = Cmax in Sprague-Dawley rat at 10 mg/kg, po measured upto 12 hrs by LC-MS/MS analysis; type: ADME, organism-based; parameters: route oral, dose 10 mg/kg, time <=12; conditions: in vivo
# [19] = AUC(0 to t) in Sprague-Dawley rat at 2 mg/kg, iv measured upto 10 hrs by LC-MS/MS analysis; type: ADME, organism-based; parameters: route intravenous, dose 2 mg/kg, time <=10; conditions: in vivo
# [20] = AUC(0 to t) in Sprague-Dawley rat at 10 mg/kg, po measured upto 12 hrs by LC-MS/MS analysis; type: ADME, organism-based; parameters: route oral, dose 10 mg/kg, time <=12; conditions: in vivo
# [21] = AUC(0 to infinity) in Sprague-Dawley rat at 2 mg/kg, iv measured upto 10 hrs by LC-MS/MS analysis; type: ADME, organism-based; parameters: route intravenous, dose 2 mg/kg, time <=10; conditions: in vivo
# [22] = AUC(0 to infinity) in Sprague-Dawley rat at 10 mg/kg, po measured upto 12 hrs by LC-MS/MS analysis; type: ADME, organism-based; parameters: route oral, dose 10 mg/kg, time <=12; conditions: in vivo
# [23] = Clearance in Sprague-Dawley rat at 2 mg/kg, iv measured upto 10 hrs by LC-MS/MS analysis; type: ADME, organism-based; conditions: in vivo
# [24] = Oral bioavailability in Sprague-Dawley rat at 10 mg/kg measured upto 12 hrs by LC-MS/MS analysis; type: ADME, organism-based; conditions: in vivo
# [25] = Aqueous solubility of the compound at pH 7.4 by HPLC analysis; type: physicochemical; conditions: buffer
# [26] = Aqueous solubility of the compound at pH 7.0 by HPLC analysis; type: physicochemical; conditions: buffer
# [27] = Aqueous solubility of the compound at pH 2.0 by HPLC analysis; type: physicochemical; conditions: buffer
# [28] = Acute toxicity in Kunming mouse assessed as change in body weight at 2000 mg/kg, po measured for 7 days; type: organism-based; conditions: in vivo, time 7 day
# [29] = tested on: Human immunodeficiency virus 1; assay: Potency index, ratio of rilpivirine EC50 to test compound EC50 for antiviral activity against HIV-1 harboring reverse transcriptase Y188L mutant infected in human MT4 cells assessed as protection against virus-induced cytopathic effect incubated for 5 days by MTT assay; type: functional; conditions: time 5 day
# [30] = tested on: Human immunodeficiency virus 1; assay: Potency index, ratio of rilpivirine EC50 to test compound EC50 for antiviral activity against HIV-1 harboring reverse transcriptase F227L/V106A mutant infected in human MT4 cells assessed as protection against virus-induced cytopathic effect incubated for 5 days by MTT assay; type: functional; conditions: time 5 day
# [31] = tested on: Human immunodeficiency virus 1; assay: Antiviral activity against HIV-1 IIIB; type: functional, organism-based; conditions: Human immunodeficiency virus 1, IIIB
# [32] = tested on: Human immunodeficiency virus 1; assay: Antiviral activity against HIV-1 IIIB harboring K103N/Y181C double mutant; type: functional, organism-based; conditions: Human immunodeficiency virus 1, IIIB
# [33] = Cytotoxicity against human MT4 cells; type: toxicity, cell-based
# [34] = Selectivity index, ratio of CC50 for human MT4 cells to EC50 for antiviral activity against HIV-1 IIIB; type: toxicity; conditions: read-out: Ratio CC50/EC50
# [35] = Selectivity index, ratio of CC50 for human MT4 cells to EC50 for antiviral activity against HIV-1 IIIB harboring K103N/Y181C double mutant; type: toxicity; conditions: read-out: Ratio CC50/EC50
smiles,measurement,setting,value
Cc1cc(/C=C/C#N)cc(C)c1Oc1nc(Nc2ccc(N3CCCC(NS(C)(=O)=O)C3)cc2)nc2c1COC2 (stereo unspecified),IC50,[1],1240 nM
Cc1cc(/C=C/C#N)cc(C)c1Oc1nc(NC2CCN(c3ccc(N)cc3)CC2)nc2c1COC2,EC50,[2],35.4 nM
same,EC50,[3],249 nM
same,CC50 at 120 h,[4],9140 nM
same,selectivity ratio,[5],258
same,selectivity ratio,[6],37
same,IC50,[1],180 nM
Cc1cc(/C=C/C#N)cc(C)c1Oc1nc(Nc2ccc(N3CCC(NS(C)(=O)=O)CC3)cc2)nc2c1COC2,IC50,[1],460 nM
Cc1cc(/C=C/C#N)cc(C)c1Oc1nc(NC2CCN(c3ccc(S(C)(=O)=O)cc3)CC2)nc2c1COC2,EC50,[2],6.3 nM
same,EC50,[3],1200 nM
same,CC50 at 120 h,[4],104000 nM
same,selectivity ratio,[5],16500
same,selectivity ratio,[6],87
same,IC50,[1],70 nM
Cc1cc(/C=C/C#N)cc(C)c1Oc1nc(Nc2ccc(N3CCN(S(N)(=O)=O)CC3)cc2)nc2c1COC2,IC50,[1],710 nM
Cc1cc(/C=C/C#N)cc(C)c1Oc1nc(NC2CCN(Cc3ccc(C(N)=O)cc3)CC2)nc2c1COC2,half-life,[7],63 min
same,EC50,[2],2.85 nM
same,EC50,[3],11.7 nM
same,CC50 at 120 h,[4],24100 nM
same,selectivity ratio,[5],8450
same,selectivity ratio,[6],2060
same,EC50,[8],3.9 nM
same,EC50,[9],2.14 nM
same,EC50,[10],6.09 nM
same,EC50,[11],18 nM
same,EC50,[12],6.76 nM
same,EC50,[13],9.67 nM
same,IC50,[1],140 nM
same,half-life,[14],52.8 min
same,Tmax,[15],1.98 min
same,Tmax,[16],127 min
same,Cmax,[17],480 ng/mL
same,Cmax,[18],250 ng/mL
same,AUC(0-t) at 10 h,[19],409 ng·h/mL
same,AUC(0-t) at 12 h,[20],801 ng·h/mL
same,AUC(0-inf),[21],503 ng·h/mL
same,AUC(0-inf),[22],809 ng·h/mL
same,clearance,[23],66.3 mL/min/kg
same,bioavailability,[24],32.1%
same,solubility,[25],5.24 µg/mL
same,solubility,[26],25.4 µg/mL
same,solubility,[27],187 µg/mL
same,Activity,[28],Non-Toxic
same,Ratio EC50,[29],4.4
same,Ratio EC50,[30],8.4
Cc1cc(/C=C/C#N)cc(C)c1Oc1nc(Nc2ccc(N3CCC(NS(N)(=O)=O)C3)cc2)nc2c1COC2 (stereo unspecified),IC50,[1],1060 nM
Cc1cc(/C=C/C#N)cc(C)c1Oc1nc(NC2CCN(c3ccc(NS(N)(=O)=O)cc3)CC2)nc2c1COC2,EC50,[2],16.8 nM
same,EC50,[3],88.9 nM
same,CC50 at 120 h,[4],23000 nM
same,selectivity ratio,[5],1370
same,selectivity ratio,[6],260
same,EC50,[8],1250 nM
same,EC50,[9],13.1 nM
same,EC50,[10],46.5 nM
same,EC50,[11],141 nM
same,EC50,[12],34.6 nM
same,EC50,[13],19.9 nM
same,IC50,[1],120 nM
Cc1cc(/C=C/C#N)cc(C)c1Oc1nc(Nc2ccc(C3CCCN(S(C)(=O)=O)CC3)cc2)nc2c1COC2 (stereo unspecified),IC50,[1],230 nM
Cc1cc(/C=C/C#N)cc(C)c1Oc1nc(Nc2ccc(CN3CCN(S(C)(=O)=O)CC3)cc2)nc2c1COC2,IC50,[1],150 nM
Cc1cc(/C=C/C#N)cc(C)c1Oc1nc(Nc2ccc(C3CCCN(S(N)(=O)=O)CC3)cc2)nc2c1COC2 (stereo unspecified),IC50,[1],90 nM
Cc1cc(C#N)cc(C)c1Oc1nc(Nc2ccc(C#N)cc2)nc(N)c1Br [ETRAVIRINE],EC50,[3],72.3 nM
same,CC50 at 120 h,[4],> 4590 nM
same,selectivity ratio,[5],> 1170
same,selectivity ratio,[6],> 64
same,EC50,[9],4.65 nM
same,EC50,[11],48.7 nM
same,EC50,[12],15.4 nM
same,EC50,[13],21.4 nM
same,solubility,[25],< 1 µg/mL
same,solubility,[26],< 1 µg/mL
Cn1c(Cn2ccc(C(F)(F)F)c(Oc3cc(Cl)cc(C#N)c3)c2=O)n[nH]c1=O [DORAVIRINE],EC50,[31],13.3 nM
same,EC50,[32],14.5 nM
same,CC50,[33],> 293000 nM
same,selectivity ratio,[34],> 21800
same,selectivity ratio,[35],> 20100
